Assay results reported in PubChem BioAssay (NCI).
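Interpolation was linear, between the two tested concentrations surrounding the appropriate level; five concentrations were tested over 48 hours in 96-well plates. The concentration for 50% growth inhibition is given as GI50. Definition used: TGI = concentration required for complete inhibition of growth.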

What was measured:
Experiment in all cases: DTP human tumour cell line panel, 48 h
[1] = test system: SK-OV-3 ovarian
[2] = test system: HS 578T breast
[3] = test system: RXF 393 renal
[4] = test system: SF-295 CNS
[5] = test system: OVCAR-4 ovarian
[6] = test system: NCI/ADR-RES ovarian
[7] = test system: SK-MEL-2 melanoma
[8] = test system: SN12C renal
[9] = test system: HCT-15 colon
[10] = test system: A498 renal
[11] = test system: NCI-H522 lung
[12] = test system: U251 CNS
[13] = test system: HOP-92 NSCLC
[14] = test system: DU-145 prostate
[15] = test system: MDA-MB-231 breast
[16] = test system: 786-0 renal
[17] = test system: HOP-62 NSCLC
[18] = test system: UO-31 renal
[19] = test system: NCI-H23 lung
[20] = test system: SNB-19 CNS
[21] = test system: NCI-H226 lung
[22] = test system: LOX IMVI melanoma
[23] = test system: EKVX NSCLC
[24] = test system: T-47D breast
[25] = test system: HCT-116 colon
[26] = test system: MOLT-4 leukemia
[27] = test system: MDA-MB-435
[28] = test system: RPMI-8226 leukemia
[29] = test system: NCI-H460 lung
[30] = test system: SR leukemia
[31] = test system: SK-MEL-28 melanoma
[32] = test system: SF-539 CNS
[33] = test system: OVCAR-5 ovarian
[34] = test system: A549 NSCLC
[35] = test system: BT-549 breast
[36] = test system: MALME-3M melanoma
[37] = test system: SW-620 colon
[38] = test system: MCF7 breast
[39] = test system: COLO 205 colon
[40] = test system: SF-268 CNS
[41] = test system: OVCAR-3 ovarian
[42] = test system: OVCAR-8 ovarian
[43] = test system: UACC-62 melanoma
[44] = test system: KM12 colon
[45] = test system: TK-10 renal
[46] = test system: CAKI-1 renal
[47] = test system: K-562 leukemia
[48] = test system: HCC-2998 colon
[49] = test system: CCRF-CEM leukemia
[50] = test system: UACC-257 melanoma
[51] = test system: SK-MEL-5 melanoma
[52] = test system: PC-3 prostate
[53] = test system: HL-60(TB) leukemia
[54] = test system: SNB-75 CNS
[55] = test system: IGROV1 ovarian
[56] = test system: ACHN renal
[57] = test system: M14 melanoma

## C[C@H]1CCC/C=C/[C@@H]2C[C@H](O)C[C@H]2[C@H](O)[C@@H](S(=O)C[C@@H](N)C(=O)O)CC(=O)O1 (stereo partly drawn)
[1]
  GI50: 117 nM
  TGI: > 82800 nM
[2]
  GI50: 15.2 nM
  TGI: > 100000 nM
[3]
  GI50: 20200 nM
  TGI: 86700 nM
[4]
  GI50: 109 nM
  TGI: > 100000 nM
[5]
  GI50: 44.5 nM
  TGI: > 75000 nM
[6]
  GI50: < 16.5 nM
  TGI: 384 nM
[7]
  GI50: 1290 nM
[8]
  GI50: 156 nM
  TGI: 1830 nM
[9]
  GI50: 137 nM
  TGI: 2260 nM
[10]
  GI50: 30.9 nM
  TGI: 149 nM
[11]
  GI50: 175 nM
  TGI: 870 nM
[12]
  GI50: 70.9 nM
  TGI: > 100000 nM
[13]
  GI50: 42.8 nM
  TGI: 1650 nM
[14]
  GI50: 434 nM
  TGI: > 100000 nM
[15]
  GI50: 25.1 nM
  TGI: 52.8 nM
[16]
  GI50: < 18.1 nM
[17]
  GI50: 241 nM
  TGI: > 100000 nM
[18]
  GI50: 37 nM
  TGI: 1620 nM
[19]
  GI50: 86.2 nM
  TGI: 8130 nM
[20]
  TGI: > 100000 nM
[21]
  GI50: 19.3 nM
[22]
  GI50: 20.3 nM
  TGI: 63.6 nM
[23]
  GI50: 84.2 nM
  TGI: > 52300 nM
[24]
  GI50: 244 nM
  TGI: 992 nM
[25]
  GI50: 32.5 nM
  TGI: 1690 nM
[26]
  GI50: 46.4 nM
[27]
  GI50: 48 nM
  TGI: > 100000 nM
[28]
  GI50: 395 nM
  TGI: > 95300 nM
[29]
  GI50: 245 nM
  TGI: > 100000 nM
[30]
  GI50: 82 nM
[31]
  GI50: 29.1 nM
  TGI: > 100000 nM
[32]
  GI50: 35.8 nM
  TGI: > 100000 nM
[33]
  GI50: > 100000 nM
  TGI: > 100000 nM
[34]
  TGI: > 100000 nM
[35]
  GI50: 86.2 nM
  TGI: > 100000 nM
[36]
  TGI: 25.7 nM
[37]
  GI50: 53.3 nM
[38]
  GI50: 30.3 nM
[39]
  GI50: 14.4 nM
  TGI: 29.3 nM
[40]
  GI50: 20.7 nM
  TGI: > 19900 nM
[41]
  GI50: 42.5 nM
[42]
  GI50: 32.3 nM
  TGI: 2840 nM
[43]
  GI50: 29.7 nM
  TGI: > 100000 nM
[44]
  GI50: < 14 nM
  TGI: 60.5 nM
[45]
  GI50: 199 nM
[46]
  GI50: 210 nM
[47]
  GI50: 884 nM
  TGI: > 100000 nM
[48]
  GI50: 30.3 nM
  TGI: 256 nM
[49]
  GI50: 50.8 nM
  TGI: 50200 nM
[50]
  GI50: < 18.2 nM
  TGI: > 100000 nM
[51]
  GI50: 20.9 nM
  TGI: 107 nM
[52]
  TGI: > 26200 nM
[53]
  GI50: 142 nM
[54]
  TGI: 19.4 nM
[55]
  GI50: 238 nM
  TGI: 19100 nM
[56]
  GI50: 83.3 nM
  TGI: 669 nM
[57]
  GI50: 42.9 nM
  TGI: > 100000 nM
